The experiment relates to Quadruplex DNA. Nature of the experiment: Binding affinity to c-myc G-quadruplex DNA (unknown origin) assessed as increase in melting temperature at 50 uM by CD-spectrometric analysis. It counts as nucleic-acid assay.

On to `Cc1ccc(NC(=O)c2c(C)oc3ccc(O)c(CN4CCCCCC4)c23)cc1`, for which the ΔTm is 2.1 °C.

By ΔTm is commonly meant the change in melting temperature against a reference sample.

(Values after ChEMBL document CHEMBL4425083, “Quadruplex Nucleic Acids as Novel Therapeutic Targets” (J Med Chem, 2016).)
